Assay results reported in patent US11596670B2, “Treatment of a disease of the gastrointestinal tract with IL-10 or an IL-10 agonist” (BIORA THERAPEUTICS, INC., priority 2017, dated 2023).

How the values were obtained:
[1] = Tissue, plasma, rectal sample and GI content pharmacokinetics of tacrolimus, oral vs. intra-cecal ingestible device (Example 10); design: species or system Yorkshire-Cross farm swine; conditions: in vivo; for Cmax: female, Yorkshire-Cross, pig, IC capsule
Protocol: No further randomization procedure was employed.
Animals in Group 1 received an ingestible device containing 0.8 mL of vehicle solution (80% alcohol, 20% HCO-60). Animals in Group 2 received orally […] liquid formulation of tacrolimus at 4 mg/0.8 mL per animal (Prograf: 5 mg/mL). Animals in Group 3 received intra-cecally an ingestible device containing tacrolimus at 1 mg in 0.8 mL per ingestible device. Animals in Group 4 received intra-cecally an ingestible device containing tacrolimus at 2 mg in 0.8 mL per ingestible device. Animals in Group 5 received intra-cecally an ingestible device containing tacrolimus at 4 mg in 0.8 mL per ingestible device. To control for potential confounding effects of the surgery, all groups fast on Day −11 at least 24 hr before being subjected to anesthesia followed by surgical placements of a cecal port by a veterinary surgeon at Day −10. All animals were fasted for at least 12 hr prior to dosing on Day 1. Animals were dosed via either intra-cecal dosing (IC) or oral dosing (PO) at Day 1 (between 6-8 p.m.). All animals resumed feeding at approximately 4 hours after dose (11-12 p.m. after dosing).
Animals in Group 1 (Vehicle Control) were administered a single intra-cecal ingestible device containing 0.8 mL Vehicle solution (80% alcohol, 20% castor oil (HCO-60) on Day 1. On Day −10 the animals were anesthetized, and a veterinary surgeon surgically placed an intra-cecal port in each animal. On Day 1, each animal was placed into a sling then a single intra-cecal ingestible device containing 0.8 mL vehicle solution (80% alcohol, 20% castor oil (HCO-60)) is introduced by the veterinary surgeon into the cecum via the cecal port in each animal. Following ingestible device placement, the animals were removed from the slings and placed back into their pens with water. All animals resumed feeding at approximately 4 hours after dose. […] A total of 60 samples were collected.
Approximately 200˜400 mg of rectal content were collected, if available, with a fecal swab (Copan Diagnostics Nylon Flocked Dry Swabs, 502CS01). The fecal swab was pre-weighed and weighed after collection in the collection tube (Sterile Tube and Cap No Media, PFPM913S), and the sample weight was recorded. The fecal swab was broken via the breakpoint, and was stored in the collection tube, and immediately frozen at −70° C. […] Immediately following euthanasia, tissue was collected.
For tissue necropsy, small intestine fluid and cecal fluid were collected separately from all the animals into two separate square plastic bottles, and stored at −20° C. The length and diameter of the cecum and the colon was measured from one animal in each group and recorded for reference. Tissues were collected for pharmacokinetic analyses and include mesenteric lymph nodes, a Peyer's Patch, and five gastrointestinal sections, including cecum, proximal colon, transverse colon, distal colon, and rectum. All samples were weighed, and the tissue sample weights were recorded. In each of the five gastrointestinal sections, tissue samples were collected in three different areas where the mucosal surface was visible and not covered by luminal content by using an 8.0-mm punch biopsy tool. Around 3 grams of the total punched sample were collected into a pre-weighed 15-mL conical tube, and the tissue weight was recorded. Three mesenteric lymph nodes were collected from different areas and weighed. At least one Peyer's Patch was collected and weighed.
Luminal contents were collected for pharmacokinetic analyses from the surface of the tissue from each of five gastrointestinal sections: cecum, proximal colon, transverse colon, distal colon, and rectum (total of 75).

[2] = in vivo
Protocol: The primary objective of this study was to study the pharmacokinetics of oral versus intra-cecal administration of tacrolimus in normal Yorkshire-Cross farm swine.
This study compares the effects of administration of: a single intra-cecal administration of a device containing 0.8 mL sterile vehicle solution (80% alcohol, 20% castor oil (HCO-60)); a single oral dose of tacrolimus at 0.09 mg/kg (in sterile vehicle solution); and a single intra-cecal administration of a device containing either 0.02 mg/kg (in sterile vehicle solution), 0.04 mg/kg (in sterile vehicle solution), or 0.09 mg/kg (in sterile vehicle solution).
This study employed five groups of three female swine weighing approximately 45 to 50 kg at study start. Swine were randomly placed into animal rooms/pens as they are transferred from the delivery vehicle without regard to group. Group numbers were assigned to the rooms in order of room number. No further randomization procedure was employed.
Animals in Group 1 received intra-cecally a device containing a vehicle solution (80% alcohol, 20% HCO-60). Animals in Group 2 received orally a liquid formulation of tacrolimus at 0.09 mg/kg per animal. Animals in Group 3 received intra-cecally a device containing tacrolimus at 0.02 mg/kg per device. Animals in Group 4 received intra-cecally a device containing tacrolimus 0.04 mg/kg per device. Animals in Group 5 received intra-cecally a device containing tacrolimus 0.09 mg/kg per device.

[3] = female, Yorkshire-Cross, pig, in vivo, 0.02 mg/kg
[4] = female, Yorkshire-Cross, pig, in vivo, 0.09 mg/kg

C=CC[C@@H]1/C=C(\C)C[C@H](C)C[C@H](OC)[C@H]2O[C@@](O)(C(=O)C(=O)N3CCCC[C@H]3C(=O)O[C@H](/C(C)=C/[C@@H]3CC[C@@H](O)[C@H](OC)C3)[C@H](C)[C@@H](O)CC1=O)[C@H](C)C[C@@H]2OC [tacrolimus]
Cmax ([1]; high (0.09 mg/kg) dose (first value)): 9.2 ± 3.3 ng/mL
Cmax ([1]; moderate (0.04 mg/kg) dose): 21.8 ± 4.73 ng/mL
luminal content (spiral, transverse, and distal colon) concentrations [1]: Significantly higher
mean concentration of tacrolimus in the cecum tissue and the proximate colon tissue [1]: higher
tissue (spiral and transverse colon) concentrations [1]: Significantly higher
level of tacrolimus in tissue ([1]; po): No measurable level
AUC ([2]; female, Yorkshire-Cross, pig, 0.02 mg/kg): 15.3 ± 2.36 ng·h/mL
AUC ([2]; female, Yorkshire-Cross, pig, 0.04 mg/kg): 51.4 ± 4.04 ng·h/mL
AUC(0-t) [2, 3]: 15.3 ng·h/mL
Cmax [2, 3]: 2.39 ± 0.57 ng/mL
AUC(0-t) ([2]; female, Yorkshire-Cross, pig, in vivo, 0.04 mg/kg): 51.4 ng·h/mL
AUC [2, 4]: 130 ± 7.83 ng·h/mL
AUC(0-t) [2, 4]: 130 ng·h/mL
AUC(0-t) ([2]; female, Yorkshire-Cross, pig, in vivo, po, 0.09 mg/kg): 16.8 ng·h/mL
AUC ([2]; female, Yorkshire-Cross, pig, po, 0.09 mg/kg): 16.8 ± 3.64 ng·h/mL
concentration at 12 h ([2]; female, Yorkshire-Cross, pig, po, 0.09 mg/kg, Trough (12 hr)): 0.568 ± 0.291 ng/mL
Kp at 12 h ([2]; female, Yorkshire-Cross, swine, po, 0.09 mg/kg): 0
Ratio Tissue (mean) (ng/g)/ Trough(12 hr)(ng/ml) ([2]; female, Yorkshire-Cross, swine, po, 0.09 mg/kg, 12 h): 0
mean concentration and AUC0-12 hours of tacrolimus in the blood ([2]; po, 0.09 mg/kg): higher
